According to patent publication CN111743889A, “赤麻木脂素的新用途” (Shanghai Institute of Materia Medica of CAS, priority 2019, dated 2020):

Tests used:
Format in all cases: cell-based
JAK1 = target: T1, JAK1 (Homo sapiens, UniProt P23458); test: Western blot, JAK1 phosphorylation; conditions: IL-6, IFN-γ and IFN-α induced, 10 min; compound 1, 5, 10, 20 μM, 1 h
T1 construct: 将细胞以每孔15万的量接种在24孔板内; endogenous in cells; HepG2 and HEK293 are the only lines named

STAT1 = test: Western blot, STAT1 phosphorylation; conditions: IFN-γ induced, 10 min; compound 1, 5, 10, 20 μM, 1 h
IGF1R = target: T2, IGF1R (Homo sapiens, UniProt P08069); test: Western blot, IGF1R phosphorylation; conditions: same concentrations (1, 5, 10, 20 μM), 1 h
T2 construct: 将细胞以每孔15万的量接种在24孔板内; endogenous in cells

[1] = system: STAT1 transcription factor [STAT1转录因子]; test: STAT1 luciferase reporter gene assay (IFN-γ induced); conditions: HepG2 cells stably transfected with reporter; IFN-γ 10 ng/ml induced; compound 1-40 μM, added 1 h before stimulus; read 5 h after
IKK-α/β = test: Western blot, IKK-α/β phosphorylation; conditions: TNF-α induced, 10 min; compound 1, 5, 10, 20 μM, 1 h
IκBα = test: Western blot, IκBα phosphorylation; conditions: TNF-α induced, 10 min; compound 1, 5, 10, 20 μM, 1 h
STAT3 = test: Western blot, STAT3 phosphorylation; conditions: IL-6 induced, 10 min; compound 1, 5, 10, 20 μM, 1 h
PDGFRβ = target: T3, PDGFRβ (Homo sapiens, UniProt P09619); test: Western blot, PDGFRβ phosphorylation; conditions: same concentrations (1, 5, 10, 20 μM), 1 h
T3 construct: 将细胞以每孔15万的量接种在24孔板内; endogenous in cells

EGFR = target: T4, EGFR (Homo sapiens, UniProt P00533); test: Western blot, EGFR phosphorylation; conditions: same concentrations (1, 5, 10, 20 μM), 1 h
T4 construct: 将细胞以每孔15万的量接种在24孔板内; endogenous in cells

PDGFRα = target: T5, PDGFRα (Homo sapiens, UniProt P16234); test: Western blot, PDGFRα phosphorylation; conditions: same concentrations (1, 5, 10, 20 μM), 1 h
T5 construct: 将细胞以每孔15万的量接种在24孔板内; endogenous in cells

TYK2 = target: T6, TYK2 (Homo sapiens, UniProt P29597); test: Western blot, TYK2 phosphorylation; conditions: IL-6, IFN-γ and IFN-α induced, 10 min; compound 1, 5, 10, 20 μM, 1 h
T6 construct: 将细胞以每孔15万的量接种在24孔板内; endogenous in cells; HepG2 and HEK293 are the only lines named

[2] = system: NF-κB signalling pathway [NF-κB信号通路]; test: NF-κB luciferase reporter gene assay (TNF-α induced); conditions: HEK293 cells with reporter; TNF-α 10 ng/ml induced; compound 1-40 μM, added 1 h before stimulus; read 5 h after
[3] = system: STAT3 transcription factor [STAT3转录因子]; test: STAT3 luciferase reporter gene assay (IL-6 induced); conditions: HepG2 cells stably transfected with reporter; IL-6 10 ng/ml induced; compound 1-40 μM, added 1 h before stimulus; read 5 h after
JAK2 = target: T7, JAK2 (Homo sapiens, UniProt O60674); test: Western blot, JAK2 phosphorylation; conditions: IL-6, IFN-γ and IFN-α induced, 10 min; compound 1, 5, 10, 20 μM, 1 h
T7 construct: 将细胞以每孔15万的量接种在24孔板内; endogenous in cells; HepG2 and HEK293 are the only lines named
T7 sequence (O60674 whole entry): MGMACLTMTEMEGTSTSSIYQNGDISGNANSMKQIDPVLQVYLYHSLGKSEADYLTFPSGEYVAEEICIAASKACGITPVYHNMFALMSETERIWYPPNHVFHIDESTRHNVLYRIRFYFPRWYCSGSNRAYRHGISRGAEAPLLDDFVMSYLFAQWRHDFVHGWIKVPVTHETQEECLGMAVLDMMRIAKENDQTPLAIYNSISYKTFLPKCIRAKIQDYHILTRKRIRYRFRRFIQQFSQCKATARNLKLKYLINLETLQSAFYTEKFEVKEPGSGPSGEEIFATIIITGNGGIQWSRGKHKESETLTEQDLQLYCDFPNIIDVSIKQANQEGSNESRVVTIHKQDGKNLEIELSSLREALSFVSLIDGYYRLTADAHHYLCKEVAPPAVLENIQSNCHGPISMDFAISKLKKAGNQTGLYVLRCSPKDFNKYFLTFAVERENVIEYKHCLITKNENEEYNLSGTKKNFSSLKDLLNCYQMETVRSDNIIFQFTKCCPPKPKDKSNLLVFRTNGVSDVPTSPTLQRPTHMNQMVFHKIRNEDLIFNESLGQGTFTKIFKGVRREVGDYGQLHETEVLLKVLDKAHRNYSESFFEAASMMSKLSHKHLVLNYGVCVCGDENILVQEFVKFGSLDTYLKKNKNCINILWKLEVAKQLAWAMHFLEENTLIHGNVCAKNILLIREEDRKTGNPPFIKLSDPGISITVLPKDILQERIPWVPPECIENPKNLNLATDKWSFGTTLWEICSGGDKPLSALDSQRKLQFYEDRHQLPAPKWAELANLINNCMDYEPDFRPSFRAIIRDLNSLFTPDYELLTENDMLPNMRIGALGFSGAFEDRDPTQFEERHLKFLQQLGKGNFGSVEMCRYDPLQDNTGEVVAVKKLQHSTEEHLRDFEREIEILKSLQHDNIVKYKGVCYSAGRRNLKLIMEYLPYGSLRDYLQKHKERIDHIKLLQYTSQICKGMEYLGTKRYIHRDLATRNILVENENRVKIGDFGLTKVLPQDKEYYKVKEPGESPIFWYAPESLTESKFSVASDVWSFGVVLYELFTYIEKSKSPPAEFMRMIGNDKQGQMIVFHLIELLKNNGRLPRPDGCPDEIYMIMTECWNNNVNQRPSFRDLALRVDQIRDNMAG

T3 sequence (P09619 33-1106): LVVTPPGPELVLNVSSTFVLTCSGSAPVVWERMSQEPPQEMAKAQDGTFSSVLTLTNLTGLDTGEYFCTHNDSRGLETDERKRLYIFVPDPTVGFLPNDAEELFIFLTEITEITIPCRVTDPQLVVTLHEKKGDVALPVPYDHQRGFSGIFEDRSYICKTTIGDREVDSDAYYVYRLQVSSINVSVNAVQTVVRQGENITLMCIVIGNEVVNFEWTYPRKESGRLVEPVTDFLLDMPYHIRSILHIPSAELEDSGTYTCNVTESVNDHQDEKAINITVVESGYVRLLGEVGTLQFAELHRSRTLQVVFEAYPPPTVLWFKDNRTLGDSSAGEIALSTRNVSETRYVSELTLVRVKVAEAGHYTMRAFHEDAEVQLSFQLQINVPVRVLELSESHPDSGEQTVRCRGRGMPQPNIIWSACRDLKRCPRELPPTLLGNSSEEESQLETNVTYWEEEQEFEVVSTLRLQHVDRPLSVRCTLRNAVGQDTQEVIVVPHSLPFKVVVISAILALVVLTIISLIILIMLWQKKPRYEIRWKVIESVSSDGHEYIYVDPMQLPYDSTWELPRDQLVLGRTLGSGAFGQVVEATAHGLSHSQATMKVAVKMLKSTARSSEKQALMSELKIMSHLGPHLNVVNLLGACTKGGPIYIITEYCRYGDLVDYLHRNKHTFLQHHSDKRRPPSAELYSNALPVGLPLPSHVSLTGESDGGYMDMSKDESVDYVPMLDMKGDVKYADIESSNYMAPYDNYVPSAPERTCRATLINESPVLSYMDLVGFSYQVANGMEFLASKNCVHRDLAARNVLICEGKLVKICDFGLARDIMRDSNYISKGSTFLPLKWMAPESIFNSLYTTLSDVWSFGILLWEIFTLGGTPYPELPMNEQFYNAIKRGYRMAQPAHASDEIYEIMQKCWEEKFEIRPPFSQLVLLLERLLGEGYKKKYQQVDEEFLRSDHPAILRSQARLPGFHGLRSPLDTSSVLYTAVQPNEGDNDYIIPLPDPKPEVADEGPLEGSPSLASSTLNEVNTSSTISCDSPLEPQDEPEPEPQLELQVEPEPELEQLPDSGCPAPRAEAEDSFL
T5 sequence (P16234 24-1089): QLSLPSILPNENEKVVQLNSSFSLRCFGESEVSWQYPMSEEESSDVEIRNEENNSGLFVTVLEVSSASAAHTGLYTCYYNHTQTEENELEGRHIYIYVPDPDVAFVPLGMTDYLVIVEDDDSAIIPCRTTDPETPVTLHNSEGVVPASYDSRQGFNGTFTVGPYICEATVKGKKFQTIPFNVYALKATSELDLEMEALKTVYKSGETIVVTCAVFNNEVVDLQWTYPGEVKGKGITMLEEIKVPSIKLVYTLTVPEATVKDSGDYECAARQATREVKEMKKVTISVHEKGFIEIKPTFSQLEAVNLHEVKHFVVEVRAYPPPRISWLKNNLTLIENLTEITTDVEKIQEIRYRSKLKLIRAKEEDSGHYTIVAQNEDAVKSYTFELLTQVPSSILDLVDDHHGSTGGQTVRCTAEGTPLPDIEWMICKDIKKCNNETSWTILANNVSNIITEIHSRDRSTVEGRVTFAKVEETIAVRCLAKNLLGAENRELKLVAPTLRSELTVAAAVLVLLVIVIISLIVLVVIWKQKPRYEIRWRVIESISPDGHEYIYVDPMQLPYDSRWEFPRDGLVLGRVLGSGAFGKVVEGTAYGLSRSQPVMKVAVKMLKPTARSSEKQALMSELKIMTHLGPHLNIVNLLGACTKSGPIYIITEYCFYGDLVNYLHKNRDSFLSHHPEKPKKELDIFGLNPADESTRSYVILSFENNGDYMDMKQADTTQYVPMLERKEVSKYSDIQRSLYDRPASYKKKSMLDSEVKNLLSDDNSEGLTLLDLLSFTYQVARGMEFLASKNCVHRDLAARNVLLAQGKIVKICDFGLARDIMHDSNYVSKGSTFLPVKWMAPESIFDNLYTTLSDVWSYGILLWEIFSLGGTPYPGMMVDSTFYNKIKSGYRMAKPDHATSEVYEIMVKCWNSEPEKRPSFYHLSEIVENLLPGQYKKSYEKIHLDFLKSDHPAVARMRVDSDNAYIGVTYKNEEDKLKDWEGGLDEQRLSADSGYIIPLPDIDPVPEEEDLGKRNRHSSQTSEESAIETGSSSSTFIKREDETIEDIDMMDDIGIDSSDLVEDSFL
T1 sequence (P23458 whole entry): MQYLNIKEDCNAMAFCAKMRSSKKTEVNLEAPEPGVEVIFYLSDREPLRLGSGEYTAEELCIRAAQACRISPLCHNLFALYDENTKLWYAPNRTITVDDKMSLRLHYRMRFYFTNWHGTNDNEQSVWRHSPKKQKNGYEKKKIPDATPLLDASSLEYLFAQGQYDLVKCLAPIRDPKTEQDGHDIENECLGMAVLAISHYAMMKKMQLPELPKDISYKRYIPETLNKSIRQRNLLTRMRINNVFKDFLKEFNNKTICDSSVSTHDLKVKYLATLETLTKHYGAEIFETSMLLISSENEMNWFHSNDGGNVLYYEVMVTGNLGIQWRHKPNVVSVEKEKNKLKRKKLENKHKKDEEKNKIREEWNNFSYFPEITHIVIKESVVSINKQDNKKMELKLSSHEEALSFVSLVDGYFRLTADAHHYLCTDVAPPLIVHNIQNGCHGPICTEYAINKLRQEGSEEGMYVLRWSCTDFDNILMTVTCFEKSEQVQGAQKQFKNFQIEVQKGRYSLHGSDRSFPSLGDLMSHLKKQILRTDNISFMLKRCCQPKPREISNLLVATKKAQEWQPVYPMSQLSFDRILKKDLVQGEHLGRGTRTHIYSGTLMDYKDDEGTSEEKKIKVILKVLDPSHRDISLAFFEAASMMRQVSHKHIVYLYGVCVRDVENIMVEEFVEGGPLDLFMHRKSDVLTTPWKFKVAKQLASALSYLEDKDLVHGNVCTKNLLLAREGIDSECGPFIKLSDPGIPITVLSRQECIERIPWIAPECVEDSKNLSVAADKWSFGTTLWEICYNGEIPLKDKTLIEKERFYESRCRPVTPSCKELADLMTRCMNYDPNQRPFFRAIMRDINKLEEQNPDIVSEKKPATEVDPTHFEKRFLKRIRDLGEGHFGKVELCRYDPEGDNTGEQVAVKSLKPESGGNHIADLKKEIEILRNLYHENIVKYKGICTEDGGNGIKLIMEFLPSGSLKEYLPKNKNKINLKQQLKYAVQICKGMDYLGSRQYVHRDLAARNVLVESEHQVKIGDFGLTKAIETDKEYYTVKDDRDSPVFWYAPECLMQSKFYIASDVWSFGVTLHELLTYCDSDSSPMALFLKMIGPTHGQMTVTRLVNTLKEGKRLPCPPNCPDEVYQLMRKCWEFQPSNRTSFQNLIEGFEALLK

Compound: COc1cc(C=CC(=O)OCCCc2cc(OC)c3c(c2)C(COC(=O)C=Cc2ccc(O)c(OC)c2)C(c2ccc(O)c(OC)c2)O3)ccc1O (centres unmarked) [赤麻木脂素, 3-(4-Hydroxy-3-methoxyphenyl)propenoic acid 3-[2,3-dihydro-2-(4-hydroxy-3-methoxyphenyl)-3-[[[3-(4-hydroxy-3-methoxyphenyl)-1-oxo-2-propenyl]oxy]methyl]-7-methoxybenzofuran-5-yl]propyl ester]
- inhibition of JAK phosphorylation (p-JAK1) (JAK1): 抑制
- inhibition of STAT1 phosphorylation (STAT1): 抑制
- effect on phosphorylation of other tyrosine kinases (IGF1R) (IGF1R): 没有抑制作用
- inhibition of transcriptional activity of STAT1 transcription factor (luciferase) [1]: 剂量依赖性的抑制
- inhibition of IKK-α/β phosphorylation (IKK-α/β): 抑制
- inhibition of IκBα phosphorylation (IκBα): 抑制
- inhibition of STAT3 phosphorylation (STAT3): 抑制
- effect on phosphorylation of other tyrosine kinases (PDGFRβ) (PDGFRβ): 没有抑制作用
- effect on phosphorylation of other tyrosine kinases (EGFR) (EGFR): 没有抑制作用
- effect on phosphorylation of other tyrosine kinases (PDGFRα) (PDGFRα): 没有抑制作用
- inhibition of JAK phosphorylation (p-TYK2) (TYK2): 抑制
- inhibition of NF-κB signalling pathway (NF-κB-dependent luciferase activity) [2]: 浓度依赖性的抑制
- inhibition of transcriptional activity of STAT3 transcription factor (luciferase) [3]: 剂量依赖性的抑制
- inhibition of JAK phosphorylation (p-JAK2) (JAK2): 抑制
